Measured values reported in patent US12286657B2, “Methods and compositions” (United Kingdom Research and Innovation, priority 2018, dated 2025).

What was measured:
[1] = test system: Vlm TEwt; experiment: LC-ESI-MS analysis of Vlm TE reaction products, TEwt; format: biochemical, Streptomyces tsusimaensis; conditions: incubation with Vlm TEwt
Description: (§1) Extracted ion chromatograms (EICs) from HR-LC-ESI-MS of reactions of tetradepsipeptidyl-SNAC 7 (1.7 mM) and Vlm TE (6.5 μM). a, TEwt produces valinomycin as its major product. […] See Supplementary Table 2 for accurate mass analysis and deviations from calculated m/z values of each compound.
(§2) Purified TEwt or TEDAP at 0.2 mg mL-1 (6.5 μM) was incubated with tetradepsipeptidyl-SNAC 7 (1.7 mM), or a mix of tetradepsipeptidyl-SNAC 7 and deoxytetradepsipeptidyl-SNAC 8 (1.7 mM each) in buffer T. Samples were incubated at room temperature for 24 hours, and then quenched with one volume of 0.1% formic acid in acetonitrile. Next, samples were centrifuged at 20,000 g, flash frozen in liquid nitrogen and stored at −80° C. before HPLC analysis. For HPLC-MS analysis, frozen samples were thawed at room temperature, vortexed and clarified by centrifugation at 20,000 g before injection. HR-LC-ESI-MS was performed at the Mass Spectroscopy Facility (Department of Chemistry, McGill University) with an Agilent XDB-C8 (5 μm, 4.6×150 mm) column in a Dionex Ultimate 3000 UHPLC system coupled to a Bruker maXis impact QTOF mass spectrometer in positive ESI mode. […] Data was analyzed using the Bruker DataAnalysis software and the SmartFormula tool (Bruker).

[2] = test system: TEDAP; experiment: LC-ESI-MS analysis of Vlm TE reaction products, TEDAP; format: biochemical, Streptomyces tsusimaensis; conditions: incubation with TEDAP
Description: as §1, §2

[3] = test system: TEDAP (Vlm TE, serine 2463 replaced by DAP); experiment: depsipeptidyl-TE complex formation with TEDAP (LC-ESI-MS); format: biochemical, Streptomyces tsusimaensis; conditions: incubation with TEDAP
[4] = test system: PCC1RS/tRNACUA and PCC2RS/tRNACUA pairs; experiment: amber codon suppression in reporter genes with photocaged-cysteine synthetase pairs; format: cell-based; conditions: cells provided with 3 or 4 and the relevant pair
Excerpt: Compounds 3 and 4 contain a conservative SH to NH2 substitution relative to photocaged cysteine derivatives that we have previously incorporated into proteins using the PCC1RS/tRNACUA and PCC2RS/tRNACUA pairs, respectively^32. (These pairs were derived from the pyrrolysyl-tRNA synthetase/tRNACUA pair).

[5] = free amino acid (lysine sidechain; beta amino group of DAP); cited from earlier work
[6] = test system: HA-tagged Ub; experiment: ubiquitination test with UBE2L3 variants; format: biochemical; conditions: for E2-Ub complex formation: 0.2 μM E1, HA-tagged Ub, E2 loading buffer; for redox sensitivity of complex with Ub: presence of ß-mercaptoethanol
Description: Ubiquitination test with UBE2L3(C86DAP). […] Ub-UBE2L3: Thioester-linked (UBE2L3[wt]) or isopeptidelinked (UBE2L3[C86DAP]) E2-Ub complex.
In order to test whether UBE2L3(C86DAP5), which had been irradiated with UV light and incubated overnight at 37° C., could be charged with Ub, a reaction containing 0.2 μM E1 and HA-tagged Ub in E2 loading buffer was set up. Each reaction (positive control [wt], negative control [C86A] and [C86DAP]) was performed with and without Ub (see FIG. 23).

[7] = storage and handling of DAP amino acid 6-TFA; format: physicochemical
Excerpt: Storage: The dry sample of DAP amino acid 6-TFA was stored in air-tight dark glass vials in a cold, dry and dark environment and was stable for over 3 years without decomposition.
It is noteworthy that the vial containing 6-TFA taken out from the fridge or freezer was always allowed to warm to r.t. prior to opening and handling.

[8] = test system: E. coli; experiment: LC-MS based amino acid uptake assay (intracellular concentration of DAP derivatives); conditions: addition of 1 mM 6 to cell media
[9] = test system: Ub-tev-His6; experiment: reactions of TEV with Ubtev (SDS-PAGE, western blot); format: biochemical; conditions: SDS-PAGE and western blot
Excerpt: The use of TEV(wt) results in cleavage of the TEV cleavage sequence. The use of TEV(C151A) results in minimal cleavage. The presence of DAP in the active site of TEV results in the presence of a new band in the coomassie gel, representing the isopeptide-linked TEV(C151DAP)-Ub complex (left). αUb and αStrep western blots of the reactions confirm the identity of the complex (TEV constructs contain a Strep tag). b, Tandem mass spectrometry of isopeptide-linked TEV(C151DAP)-Ub complex. Tandem mass spectrometry unambiguously identifies the DAP modification at the desired site and the expected tev-Gly-Gly modification on the residue, consistent with Ub trapping on DAP.
Tryptic MS/MS of the slower mobility band identifies the isopeptide linkage between DAP and Ub, confirming formation of the TEVDAP-Ub (FIG. 4b). Therefore, the substitution of the catalytic cysteine in TEV with DAP enables the creation of a protease that goes through the first step of the protease cycle: nucleophilic attack on the substrate carbonyl to form the first tetrahedral intermediate. This intermediate collapses, releasing the C-terminal fragment of the substrate and leaving the N-terminal fragment of the substrate covalently attached to the protease, through a stable amide bond that is not subject to hydrolysis. […]

CC(=O)NCCSC(=O)C(NC(=O)C(C)OC(=O)C(NC(=O)C(O)C(C)C)C(C)C)C(C)C [tetradepsipeptidyl-SNAC 7, HO-D-Hiv-D-Val-L-Lac-L-Val-SNAC]
valinomycin production [1]: led to production of valinomycin
valinomycin synthesis [2]: did not observe valinomycin synthesis
acyl-TEDAP conjugate formation yield [3]: > 60%

CC(NC[C@H](N)C(=O)O)c1cc2c(cc1[N+](=O)[O-])OCO2 (some centres unmarked) [Compound 4]
suppression of amber codons in reporter genes [4]: did not function to suppress amber codons

CC(=O)NCCSC(=O)[C@@H](NC(=O)[C@@H](C)OC(=O)[C@@H](NC(=O)CC(C)C)C(C)C)C(C)C (single isomer, unassigned) [deoxy-tetradepsipeptidyl-SNAC 8]
acyl-TEDAP conjugate formation yield [3]: ~70%

NC[C@H](N)C(=O)O (stereo in doubt) [Compound 1, 2,3-diaminopropionic acid]
pKa of the conjugate acid of the sidechain amine [5]: 9.4

UBE2L3(wt): wild type UBE2L3, positive control
E2-Ub complex formation [6]: higher molecular weight band could be observed
redox sensitivity of complex with Ub [6]: redox sensitive

CC(SCCOC(=O)NC[C@H](N)C(=O)O)c1cc2c(cc1[N+](=O)[O-])OCO2 (mixture of isomers) [Compound 6]
stable without decomposition on storage ([7]; dry sample, air-tight dark glass vials, cold, dry and dark environment): over 3 years
light and moisture sensitivity on handling ([7]; exposure to moist air): light sensitive and slightly hygroscopic
intracellular concentration [8]: approximately 2 mM

UBE2L3(C86DAP): UBE2L3 with DAP at position 86
E2-Ub complex formation [6]: higher molecular weight band could also be detected
redox sensitivity of complex with Ub [6]: redox insensitive

CC(C)[C@@H]1NC(=O)[C@H](C)OC(=O)[C@@H](C(C)C)NC(=O)[C@@H](C(C)C)OC(=O)[C@H](C(C)C)NC(=O)[C@H](C)OC(=O)[C@@H](C(C)C)NC(=O)[C@@H](C(C)C)OC(=O)[C@H](C(C)C)NC(=O)[C@H](C)OC(=O)[C@@H](C(C)C)NC(=O)[C@@H](C(C)C)OC1=O [valinomycin, reference compound]
acyl-TEDAP conjugate formation yield [3]: 65-100%

N[C@@H](CNCc1ccccc1[N+](=O)[O-])C(=O)O [Compound 3]
suppression of amber codons in reporter genes [4]: did not function to suppress amber codons

B1: TEVDAP: TEV protease with amino acid 1 (DAP) at position 151 (protein)
chain: GESLFKGPRDYNPISSTICHLTNESDGHTTSLYGIGFGPFIITNKHLFRRNNGTLLVQSLHGVFKVKNTTTLQQHLIDGRDMIIIRMPKDFPPFPQKLKFREPQREERICLVTTNFQTKSMSSMVSDTSCTFPSSDGIFWKHWIQTKDGQCGSPLVSTRDGFIVGIHSASNFTNTNNYFTSVPKNFMELLTNQEAQQWVSGWRLNADSVLWGGHKVFMSKPEEPFQPVKEATQLMN
outcome of incubation with Ub-tev-His6 [9]: formation of a new band

B2: wild-type TEV: wild-type tobacco etch virus protease (protein)
chain: B1 chain
outcome of incubation with Ub-tev-His6 [9]: cleaves Ub-tev-His6
